Source: PubChem BioAssay (NCI)
“And” between values parts separate entries of the source, which are not always exact repeats. Equal entries are not always repeated.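 Five concentrations, 48 hours, 96-well plates. Here, GI50 denotes the concentration required for 50% inhibition of growth. TGI marks complete inhibition of growth.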

Experiments:
Experiment in all cases: inhibition of tumour cell growth, NCI panel, 48 h
A549 NSCLC = tested on: A549 NSCLC
HL-60(TB) leukemia = tested on: HL-60(TB) leukemia
HOP-62 NSCLC = tested on: HOP-62 NSCLC
HT29 colon = tested on: HT29 colon
NCI-H460 lung = tested on: NCI-H460 lung
NCI-H522 lung = tested on: NCI-H522 lung
SK-MEL-28 melanoma = tested on: SK-MEL-28 melanoma
SK-MEL-5 melanoma = tested on: SK-MEL-5 melanoma
SN12C renal = tested on: SN12C renal
A498 renal = tested on: A498 renal

| SMILES | TGI (A549 NSCLC) [µM] | TGI (HL-60(TB) leukemia) [µM] | TGI (HOP-62 NSCLC) [µM] | TGI (HT29 colon) [µM] | TGI (NCI-H460 lung) [µM] | TGI (NCI-H522 lung) [µM] | TGI (SK-MEL-28 melanoma) [µM] | TGI (SK-MEL-5 melanoma) [µM] | TGI (SN12C renal) [µM] | TGI (A498 renal) [µM] | GI50 (A498 renal) [µM] | GI50 (HL-60(TB) leukemia) [µM] | GI50 (HOP-62 NSCLC) [µM] | GI50 (HT29 colon) | GI50 (NCI-H460 lung) [µM] | GI50 (NCI-H522 lung) [µM] | GI50 (SK-MEL-28 melanoma) [µM] | GI50 (SK-MEL-5 melanoma) [µM] | GI50 (SN12C renal) [µM] | GI50 (A549 NSCLC) [µM] |
| --- | --- | --- | --- | --- | --- | --- | --- | --- | --- | --- | --- | --- | --- | --- | --- | --- | --- | --- | --- | --- |
| O=C(/C=C/c1ccc(OCCCOc2ccc(/C=C/C(=O)c3ccc(Cl)cc3)cc2)cc1)c1ccc(Cl)cc1 | > 100 | > 100 | > 100 | > 100 | > 100 | > 100 | > 100 | > 100 | > 100 |  |  |  |  |  |  |  |  |  |  |  |
| O=C(O)c1ccccc1/C=C1/Nc2ccccc2C1=O | > 100 | > 100 | > 100 | > 100 | > 100 |  | > 100 |  | > 100 | > 100 |  |  |  |  |  |  |  |  |  |  |
| COc1cccc(C2N3CCCCC3[C@@H]3c4[nH]c5ccccc5c4CCN23)c1OC (some centres not stated) | 29.9 | 31.7 | 29.4 | 25.5 | 36.3 |  | 30.4 | 30.6 | 31 | 23.8 |  |  |  |  |  |  |  |  |  |  |
| CCC(C)Cn1c(C)nc2c1C(=O)c1ccccc1C2=O (configuration not stated) | > 100 | 28.5 | > 100 | > 100 | 34.3 | > 100 | > 100 | 29.6 | > 100 |  |  |  |  |  |  |  |  |  |  |  |
| O=C(CN1CCN(c2cc3c(cc2F)c(=O)c(C(=O)O)cn3C2CC2)CC1)Nc1ccc(C(=O)/C=C/c2ccccc2)cc1 |  | > 100 | > 100 | 10.3 | > 100 | 7.78 | > 100 | 13 | > 100 | 7.37 | 1.28 | 9.44 | 4.46 | 2.99 µM | 3.17 | 1.7 | 18.8 | 2.74 | 3.02 |  |
| Cc1nc(=O)n2c(c1C(=O)Nc1ccc(Cl)cc1)NCCC2 | > 100 | > 100 | > 100 | > 100 | > 100 | > 100 | > 100 |  | > 100 |  |  |  |  |  |  |  |  |  |  |  |
| O=C1/C(=C/c2ccc(Cl)cc2)COc2ccc(Br)cc21 | > 100 | > 100 | > 100 | > 100 | > 100 | > 100 | > 100 | > 100 |  | > 100 |  |  |  |  |  |  |  |  |  |  |
| C/C(=N/OCCC(=O)O)C1CC1 | > 100 | > 100 | > 100 | > 100 | > 100 | > 100 | > 100 | > 100 | > 100 |  |  |  |  |  |  |  |  |  |  |  |
| c1cc[c]([Sn]([O]c2cccc3cccnc23)([c]2ccccc2)[c]2ccccc2)cc1 | 0.0427 |  | 0.145 | 0.095 | 0.0321 |  | 0.0299 | 0.0422 | 0.0293 |  |  |  | 0.0482 | 0.0311 µM | 0.0154 | < 0.01 | 0.0116 | 0.0186 | 0.0151 | 0.0184 |
| Cc1ccc(S(=O)(=O)N/N=C/CN2C(=O)c3ccccc3C2=O)cc1 | > 100 | > 100 | > 100 | > 100 | > 100 | > 100 |  | > 100 | > 100 | > 100 |  |  |  |  |  |  |  |  |  |  |
| COc1ccccc1NC(=O)NS(=O)(=O)c1ccccc1 | > 100 | > 100 | > 100 | > 100 | > 100 | > 100 | > 100 | > 100 | > 100 |  |  |  |  |  |  |  |  |  |  |  |
| CCCN(CCC)c1c([N+](=O)[O-])cc(C(N)=O)cc1[N+](=O)[O-] | > 100 | 87.4 |  | > 100 | > 100 | 67.3 | > 100 | 53.8 | > 100 |  |  |  |  |  |  |  |  |  |  |  |
| CCOC(=O)CCC(NC(=O)c1ccc(Nc2nc3cc(N)cc(N)c3nc2-c2ccccc2)cc1)C(=O)OCC (configuration not stated) | > 100 | 50.7 | > 63 | > 100 | > 69.3 | > 100 | 13.3 | 44.6 | 58.1 |  |  | 9.62 | > 44.1 | 83.6 µM | > 29.3 | 27.9 | 5.76 | 12.6 | 26.2 | 27.8 |
| CN(C)CC1CCCCCCCCCCC1=O (configuration not stated) | > 100 | > 100 | > 100 | > 100 | > 100 | > 100 | > 100 | > 100 | > 100 |  |  | > 100 | > 100 | > 10 µM and 98.4 µM | > 100 | > 100 |  |  | > 100 | > 100 |
| CC(C)=CCCC1(C)C=Cc2c(ccc3c2[nH]c2cc(O)c(C)cc23)O1 (configuration not stated) | 17.5 | > 25 | 8.71 | 10.5 | 9.7 | 7.2 | > 2.5 | 9.31 | 8.24 |  |  | 9.48 | 4.74 | 4.9 µM | 4.73 | 3.87 |  | 4.85 | 4.63 | 6.59 |
| C/C(CC(=O)Nc1cc(Cl)c(Cl)cc1Cl)=N\NS(=O)(=O)c1ccc(C)cc1 | > 100 | 62.9 | > 100 | > 100 | > 100 | 41.8 | > 100 | > 100 |  | > 100 |  |  |  |  |  |  |  |  |  |  |
| CC1CC(=O)CC[C@@H]1OCc1ccccc1 (some centres not stated) | > 100 | > 100 | > 100 | > 100 | > 100 |  |  | > 100 | > 100 | > 100 |  |  |  |  |  |  |  |  |  |  |
| CCOc1c(Cc2ccccc2)c(=O)n2c3ccccc3n3c(=O)n(C)c(=O)c1c23 | > 100 |  | > 100 | > 100 | > 100 |  | > 100 | > 100 | > 100 | > 100 |  |  |  |  |  |  |  |  |  |  |
| CC1CCCc2c(CC3CC(=O)NC(=O)C3)nc(N)nc21 (configuration not stated) | > 100 | > 100 | > 100 | > 100 |  |  | > 100 | > 100 | > 100 | > 100 |  |  |  |  |  |  |  |  |  |  |
| COC(=O)C1=C(c2cc(OC)c(OC)c(OC)c2)OC(c2cc(OC)c(OC)c(OC)c2)C1 (configuration not stated) | > 100 |  | > 100 | 58.5 | > 100 |  | > 100 | 32.6 | 55.1 | 51.4 |  |  |  |  |  |  |  |  |  |  |
